Measured values as given in ChEMBL document CHEMBL4364295, “Discovery of a First-in-Class Receptor Interacting Protein 2 (RIP2) Kinase Specific Clinical Candidate, 2-((4-(Benzo[d]thiazol-5-ylamino)-6-(tert-butylsulfonyl)quinazolin-7-yl)oxy)ethyl Dihydrogen Phosphate, for the Treatment of Inflammatory Diseases” (J Med Chem, 2019).
pIC50: −log10 of the molar value. One block for each compound: values may come before it.

Assays:
[1] = Inhibition of TNFR in human monocytes assessed as reduction in TNFalpha-induced IL8 production; assay type: cell-based
[2] = Clearance in human hepatocytes; assay type: ADME, cell-based, Hepatocyte
[3] = Drug uptake in po dosed Sprague-Dawley rat systemic circulation by LC/MS/MS analysis; assay type: ADME, organism-based; conditions: in vivo
[4] = Dose normalized AUC in Sprague-Dawley rat at 60 mg/kg, po using crystalline sample during 7 day dose ranging study by LC/MS/MS analysis; assay type: ADME, organism-based; conditions: in vivo, 168 h
[5] = Oral bioavailability in Beagle dog at 2 mg/kg by LC/MS/MS analysis; assay type: ADME, organism-based, Canis lupus familiaris; conditions: in vivo
[6] = Dose normalized AUC in Sprague-Dawley rat at 20 mg/kg, po using crystalline sample during 7 day dose ranging study by LC/MS/MS analysis; assay type: ADME, organism-based; conditions: in vivo, 168 h
[7] = Volume of distribution at steady state in Gottingen minipig at 1 mg/kg, po or 0.4 mg/kg, iv by LC/MS/MS analysis; assay type: ADME, organism-based, Sus scrofa; conditions: pig, in vivo, read-out: Vdss
Toll-like receptor 2 = Toll-like receptor 2 (Homo sapiens, UniProt O60603); assay: Inhibition of TLR2 in HEK293 cells assessed as reduction in Pam2CSK4-induced IL8 production; assay type: cell-based
[8] = target: Tyrosine-protein kinase ABL2 (Homo sapiens) (UniProt P42684); assay: Inhibition of human ABL2 at 1 uM using EAIYAAPFAKKK as substrate in presence of [gamma-33P]ATP relative to control
[9] = Cmax in Sprague-Dawley rat at 2 mg/kg, po by LC/MS/MS analysis; assay type: ADME, organism-based; parameters: dose 2 mg/kg, route oral; conditions: in vivo
[10] = AUC in Sprague-Dawley rat assessed as 2-((4-(Benzo[d]thiazol-5-ylamino)-6-(tert-butylsulfonyl)quinazolin-7-yl)oxy)ethanol level at 2 mg/kg, po by LC/MS/MS analysis; assay type: ADME, organism-based; conditions: in vivo
[11] = target: Voltage-gated inwardly rectifying potassium channel KCNH2 (Homo sapiens, UniProt Q12809); assay: Inhibition of human ERG (1159 residues) expressed in CHOK1 cells at -80 mV holding potential measured after 5 mins by QPatch electrophysiology method; assay type: cell-based
[12] = Clearance in Beagle dog at 2 mg/kg, po or 1.1 mg/kg, iv by LC/MS/MS analysis; assay type: ADME, organism-based, Canis lupus familiaris; conditions: in vivo
[13] = Cmax in Sprague-Dawley rat at 60 mg/kg, po using crystalline sample during 7 day dose ranging study by LC/MS/MS analysis; assay type: ADME, organism-based; parameters: dose 60 mg/kg, route oral; conditions: in vivo
Toll-like receptor 7 = target: T1, Toll-like receptor 7 (Homo sapiens, UniProt Q9NYK1); assay: Inhibition of TLR7 in human monocytes assessed as reduction in gardiquimod-induced IL8 production; assay type: cell-based
T1 sequence (Q9NYK1 whole entry): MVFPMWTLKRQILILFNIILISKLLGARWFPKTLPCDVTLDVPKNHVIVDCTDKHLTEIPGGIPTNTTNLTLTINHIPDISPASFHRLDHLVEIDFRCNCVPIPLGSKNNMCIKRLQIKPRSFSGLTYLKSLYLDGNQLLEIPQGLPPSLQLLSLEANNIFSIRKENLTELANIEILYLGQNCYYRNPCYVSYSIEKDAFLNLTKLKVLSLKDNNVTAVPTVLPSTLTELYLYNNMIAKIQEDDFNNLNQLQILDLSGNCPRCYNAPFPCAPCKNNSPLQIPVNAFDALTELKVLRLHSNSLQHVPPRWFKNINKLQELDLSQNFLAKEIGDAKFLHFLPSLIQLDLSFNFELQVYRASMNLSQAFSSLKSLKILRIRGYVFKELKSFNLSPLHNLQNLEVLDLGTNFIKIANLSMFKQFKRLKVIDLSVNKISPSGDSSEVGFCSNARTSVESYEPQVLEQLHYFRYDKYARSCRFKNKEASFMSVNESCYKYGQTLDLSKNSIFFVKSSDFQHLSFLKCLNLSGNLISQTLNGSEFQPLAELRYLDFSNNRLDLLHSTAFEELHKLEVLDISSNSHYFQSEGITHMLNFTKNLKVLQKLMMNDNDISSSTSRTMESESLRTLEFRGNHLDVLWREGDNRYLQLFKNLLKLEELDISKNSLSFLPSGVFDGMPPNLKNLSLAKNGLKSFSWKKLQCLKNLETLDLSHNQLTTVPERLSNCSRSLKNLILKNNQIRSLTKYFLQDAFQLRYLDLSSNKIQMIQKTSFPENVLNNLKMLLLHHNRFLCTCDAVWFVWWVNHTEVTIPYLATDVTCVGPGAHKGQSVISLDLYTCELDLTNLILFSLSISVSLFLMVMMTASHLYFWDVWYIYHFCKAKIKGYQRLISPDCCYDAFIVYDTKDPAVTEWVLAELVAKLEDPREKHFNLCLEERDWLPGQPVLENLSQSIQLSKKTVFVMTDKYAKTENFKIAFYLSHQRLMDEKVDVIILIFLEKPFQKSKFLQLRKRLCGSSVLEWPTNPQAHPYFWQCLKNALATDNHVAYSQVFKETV

[14] = Prodrug conversion in minipig hepatocytes assessed as 2-(4-(benzo[d]thiazol-5-ylamino)-6-(tert-butylsulfonyl)quinazolin-7-yloxy)acetic acid formation at 20 uM measured after 4 hrs; assay type: ADME, cell-based, Sus scrofa, Hepatocyte; conditions: pig
[15] = Toxicity in Gottingen minipig during 6 week study; parameters: species or system Sus scrofa; conditions: pig, in vivo, 1008 h
[16] = Drug uptake in Sprague-Dawley rat systemic circulation at 2 mg/kg, po or 1.1 mg/kg, iv by LC/MS/MS analysis; assay type: ADME, organism-based; conditions: in vivo
[17] = Drug uptake in Han Wistar rat colon at 2 mg/kg, iv administered as infusion for 4 hrs; assay type: ADME, organism-based; conditions: in vivo
[18] = Terminal half life in Beagle dog assessed as 2-((4-(Benzo[d]thiazol-5-ylamino)-6-(tert-butylsulfonyl)quinazolin-7-yl)oxy)ethanol level at 2 mg/kg, po or 0.9 mg/kg, iv by LC/MS/MS analysis; assay type: ADME, organism-based, Canis lupus familiaris; conditions: in vivo
[19] = Ratio of brain to blood concentration in Han Wistar rat assessed as 2-((4-(Benzo[d]thiazol-5-ylamino)-6-(tert-butylsulfonyl)quinazolin-7-yl)oxy)ethanol level at 2 mg/kg, iv administered as infusion for 4 hrs; assay type: ADME, organism-based
[20] = Prodrug conversion in rat hepatocytes assessed as dephosphorylation at 20 uM measured after 4 hrs; assay type: ADME, cell-based, Hepatocyte
[21] = Volume of distribution at steady state in Sprague-Dawley rat assessed as 2-((4-(Benzo[d]thiazol-5-ylamino)-6-(tert-butylsulfonyl)quinazolin-7-yl)oxy)ethanol level at 2 mg/kg, po or 1.1 mg/kg, iv by LC/MS/MS analysis; assay type: ADME, organism-based; conditions: in vivo
[22] = Half life in human blood; assay type: ADME, tissue-based
[23] = Prodrug conversion in rat hepatocytes assessed as 2-(4-(benzo[d]thiazol-5-ylamino)-6-(tert-butylsulfonyl)quinazolin-7-yloxy)acetic acid formation at 20 uM measured after 4 hrs; assay type: ADME, cell-based, Hepatocyte
[24] = Prodrug conversion in minipig hepatocytes assessed as benzothiazole ring opening at 20 uM measured after 4 hrs; assay type: ADME, cell-based, Sus scrofa, Hepatocyte; conditions: pig
[25] = Prodrug conversion in rat hepatocytes assessed as hydrogenation at 20 uM measured after 4 hrs; assay type: ADME, cell-based, Hepatocyte
[26] = Prodrug conversion in Han Wistar rat colon assessed as 2-((4-(Benzo[d]thiazol-5-ylamino)-6-(tert-butylsulfonyl)quinazolin-7-yl)oxy)ethanol formation at 2 mg/kg, iv administered as infusion for 4 hrs; assay type: ADME, organism-based; conditions: in vivo
[27] = Prodrug conversion in human hepatocytes assessed as hydrogenation at 20 uM measured after 4 hrs; assay type: ADME, cell-based, Hepatocyte

Chain of Voltage-gated inwardly rectifying potassium channel KCNH2 (Q12809 whole entry): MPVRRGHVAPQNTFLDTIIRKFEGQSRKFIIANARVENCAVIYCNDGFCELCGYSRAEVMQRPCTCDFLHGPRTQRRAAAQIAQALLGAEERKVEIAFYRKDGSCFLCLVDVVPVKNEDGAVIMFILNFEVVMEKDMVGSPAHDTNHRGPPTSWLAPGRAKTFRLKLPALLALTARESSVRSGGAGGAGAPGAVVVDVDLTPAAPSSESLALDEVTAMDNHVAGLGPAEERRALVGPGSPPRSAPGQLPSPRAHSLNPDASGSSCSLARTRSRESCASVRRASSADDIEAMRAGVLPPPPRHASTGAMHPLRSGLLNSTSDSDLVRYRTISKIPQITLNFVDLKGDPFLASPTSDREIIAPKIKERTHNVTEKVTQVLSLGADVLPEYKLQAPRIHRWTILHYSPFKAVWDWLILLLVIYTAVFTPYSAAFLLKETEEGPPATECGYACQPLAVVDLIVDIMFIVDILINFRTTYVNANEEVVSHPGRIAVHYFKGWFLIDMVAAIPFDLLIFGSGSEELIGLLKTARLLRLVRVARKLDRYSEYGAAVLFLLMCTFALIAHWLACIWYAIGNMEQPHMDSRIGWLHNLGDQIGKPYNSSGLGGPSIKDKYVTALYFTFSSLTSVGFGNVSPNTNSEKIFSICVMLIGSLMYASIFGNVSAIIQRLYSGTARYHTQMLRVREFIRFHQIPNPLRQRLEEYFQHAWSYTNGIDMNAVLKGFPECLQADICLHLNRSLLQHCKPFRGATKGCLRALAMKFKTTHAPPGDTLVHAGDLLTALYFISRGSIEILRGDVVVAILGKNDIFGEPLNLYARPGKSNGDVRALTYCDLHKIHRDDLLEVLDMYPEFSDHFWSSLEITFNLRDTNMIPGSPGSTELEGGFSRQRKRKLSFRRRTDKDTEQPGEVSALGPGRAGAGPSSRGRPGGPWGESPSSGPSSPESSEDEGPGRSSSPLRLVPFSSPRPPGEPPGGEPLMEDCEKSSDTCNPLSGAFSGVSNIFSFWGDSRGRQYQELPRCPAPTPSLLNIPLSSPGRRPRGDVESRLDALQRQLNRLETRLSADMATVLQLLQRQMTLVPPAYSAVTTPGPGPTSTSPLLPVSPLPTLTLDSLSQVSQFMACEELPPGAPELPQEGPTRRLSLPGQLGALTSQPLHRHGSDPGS
Chain of Tyrosine-protein kinase ABL2 (Homo sapiens) (P42684 whole entry): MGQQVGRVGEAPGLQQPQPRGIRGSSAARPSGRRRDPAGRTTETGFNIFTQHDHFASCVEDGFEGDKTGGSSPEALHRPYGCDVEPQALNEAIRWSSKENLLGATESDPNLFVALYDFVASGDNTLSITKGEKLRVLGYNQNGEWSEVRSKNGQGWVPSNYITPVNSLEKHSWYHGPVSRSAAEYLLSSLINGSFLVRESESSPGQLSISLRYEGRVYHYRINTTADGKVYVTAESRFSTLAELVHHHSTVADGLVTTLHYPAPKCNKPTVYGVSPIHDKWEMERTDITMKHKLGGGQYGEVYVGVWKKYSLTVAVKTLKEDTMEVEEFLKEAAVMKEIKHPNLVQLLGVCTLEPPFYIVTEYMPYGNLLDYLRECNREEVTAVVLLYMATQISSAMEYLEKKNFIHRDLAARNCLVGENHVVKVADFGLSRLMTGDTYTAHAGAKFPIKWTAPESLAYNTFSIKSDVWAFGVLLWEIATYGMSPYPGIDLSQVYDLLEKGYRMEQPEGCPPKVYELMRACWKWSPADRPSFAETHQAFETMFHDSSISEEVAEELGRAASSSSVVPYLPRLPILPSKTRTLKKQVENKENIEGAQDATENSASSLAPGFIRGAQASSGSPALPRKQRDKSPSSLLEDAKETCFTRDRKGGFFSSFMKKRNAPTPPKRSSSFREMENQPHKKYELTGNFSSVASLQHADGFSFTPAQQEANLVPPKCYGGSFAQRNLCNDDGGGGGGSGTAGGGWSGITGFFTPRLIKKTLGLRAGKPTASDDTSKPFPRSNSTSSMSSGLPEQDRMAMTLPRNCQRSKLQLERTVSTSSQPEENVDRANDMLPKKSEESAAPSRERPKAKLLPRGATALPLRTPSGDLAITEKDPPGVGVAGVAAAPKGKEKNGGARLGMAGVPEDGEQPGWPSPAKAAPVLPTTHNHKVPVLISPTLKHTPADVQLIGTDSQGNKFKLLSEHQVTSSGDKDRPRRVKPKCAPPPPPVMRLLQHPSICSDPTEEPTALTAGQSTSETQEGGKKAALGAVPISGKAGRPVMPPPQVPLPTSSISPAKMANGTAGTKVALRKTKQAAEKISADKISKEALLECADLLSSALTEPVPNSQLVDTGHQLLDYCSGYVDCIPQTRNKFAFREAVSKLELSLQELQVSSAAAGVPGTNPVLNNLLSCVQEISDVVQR
Chain of Toll-like receptor 2 (O60603 whole entry): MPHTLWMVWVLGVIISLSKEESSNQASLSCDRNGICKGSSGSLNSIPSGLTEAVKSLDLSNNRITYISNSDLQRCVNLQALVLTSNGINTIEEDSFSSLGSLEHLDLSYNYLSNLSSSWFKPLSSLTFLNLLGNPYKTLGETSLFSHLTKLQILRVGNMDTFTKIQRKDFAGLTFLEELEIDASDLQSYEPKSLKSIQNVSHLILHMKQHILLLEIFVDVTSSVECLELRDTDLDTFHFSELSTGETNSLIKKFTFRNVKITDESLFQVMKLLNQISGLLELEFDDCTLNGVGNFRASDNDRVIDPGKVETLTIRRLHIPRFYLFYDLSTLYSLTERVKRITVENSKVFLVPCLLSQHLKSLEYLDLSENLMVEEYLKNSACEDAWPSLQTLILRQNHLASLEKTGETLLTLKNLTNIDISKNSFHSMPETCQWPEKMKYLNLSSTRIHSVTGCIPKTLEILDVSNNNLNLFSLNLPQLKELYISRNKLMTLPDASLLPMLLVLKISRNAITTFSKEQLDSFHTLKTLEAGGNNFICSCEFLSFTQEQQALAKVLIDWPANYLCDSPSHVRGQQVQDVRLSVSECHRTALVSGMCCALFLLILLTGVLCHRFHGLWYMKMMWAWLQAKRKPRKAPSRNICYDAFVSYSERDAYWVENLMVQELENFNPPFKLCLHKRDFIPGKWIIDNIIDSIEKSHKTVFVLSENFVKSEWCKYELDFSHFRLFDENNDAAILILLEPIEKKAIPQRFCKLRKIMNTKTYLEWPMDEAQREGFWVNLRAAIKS

pIC50 [1]: < 5.00 | CLH [2]: < 0.48 mL/min/g | Drug uptake [3]: Not Active | AUC/dose [4]: 0.39 kg·h/L | bioavailability [5]: 57% | AUC/dose [6]: 0.44 kg·h/L | Vd [7]: 1.8 L/kg | pIC50 (Toll-like receptor 2): < 5.00 | inhibition [8]: 70 to 90% | Cmax [9]: 120 ng/mL | AUC [10]: 460 ng·h/mL | clearance [12]: 9.9 mL/min/kg | Cmax [13]: 2100 ng/mL | pIC50 (Toll-like receptor 7): < 5.00
SMILES: CC(C)(C)S(=O)(=O)c1cc2c(Nc3ccc4scnc4c3)ncnc2cc1OCCO
pIC50 [11]: < 4.52

Drug metabolism [14]: Metabolite_Detected | Drug uptake [16]: Not Active | Drug uptake [3]: Not Active | Drug uptake [17]: Not Active | beta t1/2 [18]: 174 min | Ratio [19]: 0.065 | Drug metabolism [20]: Metabolite_Detected | Vdss [21]: 2.1 L/kg | half-life [22]: 25 min | Drug metabolism [23]: Metabolite_Detected | Drug metabolism [24]: Metabolite_Detected | Drug metabolism [25]: Metabolite_Detected | AUC [10]: 580 ng·h/mL | Drug metabolism [26]: Metabolite_Detected | Drug metabolism [27]: Metabolite_Detected
SMILES: CC(C)(C)S(=O)(=O)c1cc2c(Nc3ccc4scnc4c3)ncnc2cc1OCCOP(=O)(O)O.[CaH2]
Activity [15]: Non-Toxic | pIC50 [11]: < 4.52
